Assay results taken from patent US20190124959A1, “SYSTEMS, METHODS, AND COMPOSITIONS RELATED TO USING NON-LIVE-BACTERIA PREPARATIONS TO PROMOTE FOOD SAFETY AND PRESERVATION” (priority 2016, published 2019).
Like-named read-outs stand apart in the source and are kept apart here.

Test system: E. coli (strains ATCC BAA 1427, 1428, 1429, 1430 and 1431)
Type: cell-based
Design: key: + = Growth; −1 = Inhibition; − = No Growth
Experimental: A microtiter experiment was conducted to evaluate the pathogen killing effect of the following pathogen killing agents: (1) about 100 μL of non-live-bacteria concentrate having dead bacteria alone (obtained from Example 8), (2) a blend of about 50 μL of non-live-bacteria concentrate having dead bacteria (obtained from Example 8), and about 50 μL of approximately 0.1 M lactic acid, or (3) about 100 μL of approximately 0.1 M lactic acid alone when added into Swanson® chicken broth and a source of pathogens.
About 100 μL chicken broth was added into microtiter wells 1 through 12. The pathogen killing agents were added at about 100 μL into wells 1 and 2. About 100 μL from the mixture of pathogen killing agent and chicken broth were then added to well 3 and then repeated thereafter to create the following dilutions, by volume, until well 11: 1:1, 1:2, 1:4, 1:8, 1:16, 1:32, 1:64, 1:128, 1:256, 1:512, and 1:1024. Next, into all microtiter wells, about 50 μL of a solution containing E. coli (strains ATCC BAA 1427, 1428, 1429, 1430 and 1431) were added such that an approximately 1×10^5 cfu/gram concentration of E. coli in each well was obtained. Well 12 served as the positive control by having no pathogen killing agent added. Microtiter plates containing the wells described above were then placed into an incubator at about 35° C. for either about 24 or about 48 hours. After the appropriate incubation time, microtiter plates were removed from the incubator and the color indicator (about 50 μL iodonitrotetrazolium salt reagent) was added into each well and the microtiter plate placed back into the incubator at about 35° C. for about an additional 4 hours to produce the desired color change reaction. Upon removal from the incubator, the color change and pH in each well were recorded.

Measured: Microtiter well result, E. coli growth

CC(O)C(=O)O (stereo not shown) [Lactic Acid, lactic acid]
+: dilution 1:4, After Incubating at 35° C. for 48 hours | dilution 1:8, After Incubating at 35° C. for 48 hours | dilution 1:16, After Incubating at 35° C. for 48 hours | dilution 1:32, After Incubating at 35° C. for 48 hours | dilution 1:64, After Incubating at 35° C. for 48 hours | dilution 1:128, After Incubating at 35° C. for 24 hours | dilution 1:256, After Incubating at 35° C. for 24 hours | dilution 1:256, After Incubating at 35° C. for 48 hours | dilution 1:512, After Incubating at 35° C. for 24 hours | dilution 1:512, After Incubating at 35° C. for 48 hours | dilution 1:1024, After Incubating at 35° C. for 24 hours | dilution 1:1024, After Incubating at 35° C. for 48 hours
−1: dilution 1:128, After Incubating at 35° C. for 48 hours
−: dilution 1:1, After Incubating at 35° C. for 24 hours | dilution 1:1, After Incubating at 35° C. for 48 hours | dilution 1:2, After Incubating at 35° C. for 24 hours | dilution 1:2, After Incubating at 35° C. for 48 hours | dilution 1:4, After Incubating at 35° C. for 24 hours | dilution 1:8, After Incubating at 35° C. for 24 hours | dilution 1:16, After Incubating at 35° C. for 24 hours | dilution 1:32, After Incubating at 35° C. for 24 hours | dilution 1:64, After Incubating at 35° C. for 24 hours
